In PMC12291851, “Hydrogen Sulfide (H2S)-Donating Formyl Peptide Receptor 2 (FPR2) Agonists: Design, Synthesis, and Biological Evaluation in Primary Mouse Microglia Culture” (Antioxidants, 2025):

Tests used:
FPR2 = target: T1, FPR2 (Homo sapiens, UniProt P25090); experiment: Ca2+ mobilization (agonist activity) in FPR2-HL60 cells; details: for Ca2+ Mobilization HL60-FPR2 Efficacy: response to 5 nM WKYMVM = 100%
T1 sequence (P25090 1-351): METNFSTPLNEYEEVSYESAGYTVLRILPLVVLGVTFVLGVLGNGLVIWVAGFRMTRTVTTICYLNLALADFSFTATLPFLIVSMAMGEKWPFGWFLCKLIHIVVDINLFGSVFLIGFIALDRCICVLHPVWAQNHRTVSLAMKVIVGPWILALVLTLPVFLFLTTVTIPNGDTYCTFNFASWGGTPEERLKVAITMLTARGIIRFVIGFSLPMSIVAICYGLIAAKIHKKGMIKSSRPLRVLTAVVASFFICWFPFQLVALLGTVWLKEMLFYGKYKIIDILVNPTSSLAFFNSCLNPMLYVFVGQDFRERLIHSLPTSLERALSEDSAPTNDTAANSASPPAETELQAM

[1] = Cell-free MTT-based H2S release assay; format: physicochemical; details: 24 h incubation in MEM with 10% DMSO
Method: Solutions at different concentrations of each compound in 100 µL of serum-free MEM/10% DMSO with 0.5 mg/mL 3-(4,5-dimethylthiazol-2yl)-2,5-diphenyltetrazolium bromide (MTT) were incubated for 5 h or 24 h in a humidified incubator at 37 °C in 5% CO2 atmosphere. The experimental design comprised blank wells containing only medium and MTT, and a H2S calibration curve obtained by incubating nine solutions at decreasing concentrations (100 µM to 0.01 µM) of NaHS in medium and MTT. At the end of incubation time, the supernatant was removed, the […] crystals were dissolved in 100 µL DMSO/EtOH (1:1 v/v), and absorbance values were read using a Victor 3 plate reader (PerkinElmer, Shelton, CT, USA) at 570 nm. H2S values are expressed as mean ± S.E.M. of the results of three independent experiments conducted in triplicate, and were plotted using GraphPad Prism 7.
To decipher such results and considering the redox properties of H2S, we questioned if H2S released by our compounds in the culture media could interfere with the conversion of MTT (3-[4,5-dimethylthiazol-2-yl]-2,5-diphenyl tetrazolium bromide) to formazan, which is usually related to cell viability. Thus, we ran cell-free experiments in which MTT was used as the substrate to capture the reductive action of H2S. We found, in agreement with Gerő et al., that some of our thioureas and thioamides reduced MTT to formazan after 24 h incubation in MEM with 10% DMSO.

[2] = system: mouse primary microglial cells; experiment: LDH release assay in primary microglial cells; format: cell-based; details: 1 μM pretreatment 1 h, then LPS 0.1 μg/mL 24 h
Method: Primary microglial cell cultures were derived from the cortices of 1–2-day-old mouse pups (1pup/1 brain/1 flask). After decapitation, the brains were extracted and immediately placed in cold Hanks’ Balanced Salt Solution (HBSS, Gibco, New York, NY, USA) on ice. The brains were washed at least three times with 7 mL of HBSS and then transferred to 10 mL of fresh culture media consisting of Dulbecco’s Modified Eagle Medium (DMEM) with GlutaMax and high glucose (4.5 g/L) (Gibco, New York, NY, USA) on ice. The tissue was minced and incubated in HBSS containing glucose, bovine serum albumin (BSA; Sigma-Aldrich, St. Louis, MO, USA), and HEPES (Gibco, New York, NY, USA) with 0.025% trypsin at 37 °C for 20 min. The trypsinization was halted by adding DMEM with GlutaMax and high glucose (4.5 g/L) supplemented with 10% heat-inactivated fetal bovine serum (FBS, Gibco, New York, NY, USA). […] The purity of microglial cell cultures was assessed as we have shown previously. […]
LDH release was measured as previously described by as an estimation of cell damage 24 h after LPS treatment. […] Absorbance was measured at 540 nm using an Infinite M200PRO microplate reader (TECAN, Männedorf, Switzerland). The results were normalized to the LDH activity released from vehicle-treated cells (considered as 100%) and expressed as a percentage of the control ± SD.

| SMILES | fold less potent at FPR2 than the corresponding urea/amide (FPR2; ratio of FPR2 EC50 vs 3b, 3c or 4b) | Ca2+ Mobilization HL60-FPR2 Efficacy (FPR2) | absorbance signal (MTT reduction to formazan) indicative of H2S release [1] | LPS-induced cytotoxicity (LDH release) [2] |
| --- | --- | --- | --- | --- |
| N#Cc1ccc(C[C@H](NC(=O)Nc2ccc(F)cc2)C(=S)N2CCc3ccccc32)cc1 [7b, (S)-1-[3-(4-Cyanophenyl)-1-(indolin-1-yl)-1-thioxopropan-2-yl]-3-(4-fluorophenyl)urea] | 23 fold | 170% | robust absorbance signal | effectively mitigated |
| N#Cc1ccc(C[C@H](NC(=O)Nc2ccc(Br)cc2)C(=S)N2CCc3ccccc32)cc1 [8b, (S)-1-(4-Bromophenyl)-3-[3-(4-cyanophenyl)-1-(indolin-1-yl)-1-thioxopropan-2-yl]urea] | – | 150% | below the assay’s detection limit | effectively mitigated |
